Measured values as given in patent publication US7514257B2, “Zinc finger transcription factor differentiation proteins” (ToolGen, Inc., priority 2001, dated 2009).
Where “and” joins values, the source holds several entries; their conditions need not be identical. Equal values may be shown once.

How the values were obtained:
CMV-SEAP reporter = CMV-SEAP reporter in 293F cells; format: cell-based, human; conditions: for CMV-SEAP, average: Vector (HANLS) = 1
Description: (§1) Three days after transfection, medium was transferred to the new tubes and heated for 30 minutes at 65° C. to inactivate the endogenous alkaline phosphatase. 25 μl of medium was mixed with the same volume of 2×SEAP assay buffer (2 M Diethanolamine (pH 9.8) 10 ml, 1 M MgCl2 10 μl, 1 M homoarginine 200 μl, pNitro phenyl phosphate 44.52 mg). Absorbance at 405 nm was measured after the indicated incubation times at 37° C.
(§2) To investigate this point, an extensive screening had been carried out using the SEAP reporter under the control of CMV promoter (CMV-SEAP) in 293F cells. Two ZFPs, K44—11_D01 and K44—11_G12, that increase activity of the SEAP protein were isolated. These two ZFPs were further tested using two other reporter plasmids, SV40-SEAP and the luciferase reporter under the control of CMV promoter (CMV-Luc). […] Thus, K44—11_G12 may be used increase the production of proteins generally in cells, e.g., eukaryotic cells.

CMV-Luc reporter = CMV-Luc reporter in 293F cells; format: cell-based, human; conditions: for CMV-Luc, average: Vector (HANLS) = 1
Description: For the luciferase assay, 5 ng of both CMV-luciferase and pRL-SV40 plasmid were co-transfected with 50 ng of ZFP coding plasmids to 293 cells seeded in wells of a 96 well plate. After 3 days of incubation, cells were harvested and the luciferase assay was done by a Dual Luciferase reporter assay system (Promega) as recommended by the manufacturer.
as §2

SV40-SEAP reporter = SV40-SEAP reporter in 293F cells; format: cell-based, human; conditions: for SV40-SEAP, average: Vector (HANLS) = 1
Description: as §1
as §2, with “(CMV-Luc). […].” for “(CMV-Luc).”

[1] = test system: mouse neuroblastoma Neuro2a cells; test: Neurite formation in Neuro2A cells; format: cell-based
Description: Mouse neuroblastoma Neuro2a cells were maintained in MEM-a media with 10% FBS and antibiotics at 37° C., in a humidified atmosphere containing 95% air and 5% CO2. Cells were seeded at 8.0·10^3 cells per 96-well culture plate and then were transfected using LIPOFECTAMINE PLUS™ reagent (Invitrogen,CA) according to the manufacturer's protocol, with 50 ng of ZFP, together with 20 ng of LacZ reporter plasmid. In vitro differentiation was carried out with or without retinoic acid (RA) (10 μM) respectively, and G418 (1 mg/ml) was treated 24 hours after transfection to reduce the number of untransfected cells. Cells were then cultured for 96 hours and then fixed, stained for β-galactosidase activity, and photographed. Among β-galactosidase-positive cells, cells were regarded as differentiated if the length of neurite extension was at least two times the diameter of the cell body.
To screen for ZFP-TFs that can induce neuronal differentiation, Neuro2A cells were transiently transfected with library plasmids and a reporter plasmid that includes the LacZ gene. LacZ expression was used to visualize the morphology of transfected cells. Because the differentiating cells grow slower than non-differentiating cells and the latter will dominate the cell population, we treated the cell culture with G418 24 hr after transfection to reduce the number of untransfected cells. After five days, cells were fixed and LacZ-stained. We then characterized the cells by their morphological characteristics. In particular, we identified cells with increased neurite length and thickness.

[2] = test system: transcripts of human embryonic kidney 293 cells; test: Transcript profiling of 293 cells expressing F121_p65; format: cell-based
Description: DNA microarrays containing 7458 human EST clones were obtained from Genomictree (Korea). FlpTRex-293 cells stably expressing ZFP-TFs were grown with (+Dox) or without Dox) 1 μg/ml Doxycycline for 48 hours. Total RNA was prepared from each sample. RNA from the −Dox sample was used as a reference (Cy3), and +Dox as the experimental sample (Cy5). Microarray analysis was performed according to the manufacturer's protocols. Spots with sum of median less than 500 were colored red and not analyzed.
The zinc finger protein F121_p65 was expressed in human embryonic kidney 293 cells. […] F121_p65 increases transcription of insulin-like growth factor 2, among other genes.

293 cells = test: Cell growth of transfected 293 cells (cell count confirming MTT assay); format: cell-based, human; conditions: for relative cell number, average: three days after transfection, relative to parental vector
Description: MTT assay is used to measure cell growth. Tetrazolium MTT reduced by metabolically active cells […] color indicates the number of viable cells. MTT assay was done using a MTT assay kit (Trevigen). The MTT assay was done at three days after transfection. Briefly, 10 μl of MTT solution was added directly to the culture medium and incubated for two hours in a CO2 incubator. Then, 100 μl of detergent solution from the MTT assay kit was added and incubated in the dark for two hours before measurement of absorbance at 570 nm was measured using a Power-Wave 340× (Bio-Tek Instrument).
To count cell numbers, 293 cells were seeded at 1.5·10^4 cells/well in a 24 well plate one day before transfection. Three days after transfection with 200 ng of ZFP-coding nucleic acid or control vector plasmids, cells were washed with PBS once and suspended in 30 ul of TE (10 mM Tris 1 mM EDTA, pH 8.0) buffer and counted by hematocytometery.
To confirm the MTT assay, the cell numbers were counted after transfection of K_D10 and K_F02 in 293 cells. The result was compared to the cell number of the well transfected with the parental vector, converted to relative percentages and shown in Table 13. […] The P values for K_D10 and K_F02 are 0.001 and 0.01, respectively. For sequence information, see FIGS. 18 and 19.

[3] = test system: SV40-SEAP reporter (pSEAP2-control); test: SEAP assay, SV40-SEAP reporter in 293 cells; format: cell-based, human
Description: Human embryonic kidney 293 cells were cultured with 100 μl of DMEM with 10% of FBS in a humidified atmosphere containing 95% air and 5% CO2 and seeded in wells of a 96 well plates 1 day ahead of transfection. The plasmids were isolated from individual colonies of each library separately and transfected into 293 cells LIPOFECTAMINE PLUS™ (Invitrogen) as recommended by the manufacturer. For MTT assay, 50 ng of plasmids containing zinc finger protein gene fused to the functional domains were transfected into cells cultured at 5·10^3 cells/well. For the SEAP assay, 10 ng of pSEAP2-control (Clontech) plasmid was co-transfected with 50 ng of plasmids containing zinc finger protein gene fused to the functional domains into cells cultured at 1·10^4 cells/well. The transfected cells were incubated at 37° C. for three days before assays.
as §1
We tested whether library nucleic acids could alter expression of a heterologous nucleic acid. SEAP (secretory alkaline phosphatase) was used as a reporter protein to test whether a ZFP can affect amount of foreign protein produced intracellularly.

yeast strain YPH499a = test: Ketoconazole resistance of yeast transformants; format: cell-based, Saccharomyces cerevisiae; conditions: 10^7 cells plated on synthetic media
Description: To check the fungistatic response of the tester strain YPH499a to ketoconazole, 10^7 cells of the YPH499a strain were plated onto synthetic media containing different concentrations of the drug.
1×10^7 yeast cells containing plasmids from the 3-finger and 4-finger libraries were cultivated in synthetic liquid medium with 2% galactose for 3 hours at 30° C. to induce zinc finger protein expression and then were plated onto synthetic galactose agar plates containing 35 μM ketoconazole (ICN Biomedicals). After fours days of incubation at 30° C., about 120 clones formed colonies on galactose media containing 35 μM ketoconazole. These ketoconazole resistant yeast colonies were picked and streaked on fresh synthetic galactose agar plates containing 35 μM ketoconazole. 23 clones were randomly selected from the 120 resistant clones. For each of these 23 clones, the resistant phenotype was verified by plasmid rescue. […]
In one experiment, 5×10^4 cells from each transformant were serially diluted (10^−1, 10^−2, and 10^−3 fold) and spotted on galactose or glucose media supplemented without or with 35 μM ketoconazole. Growth of the cells was monitored after four days at 30° C. and compared to controls on the same plate. […]

C2C12 myoblasts = test: ALP staining for transdifferentiation of C2C12 myoblasts to osteoblasts; format: cell-based, mouse; conditions: absence of BMP-2, seven days after transfection
Description: We screened for chimeric zinc finger proteins that induce transdifferentiation of C2C12 myoblasts to osteoblasts in the absence of BMP-2. We transiently transfected a nucleic acid library encoding chimeric zinc finger proteins into C2C12 cells and screened for cells that undergo transdifferentiation in the absence of BMP-2. Seven days after transfection, the transformed cells were stained for alkaline phosphatase (ALP), a marker for osteoblasts (Katagiri, T. et al., (1994) J. Cell. Biol. 127:1755).
For these experiments, the mouse myoblast cell line, C2C12, was maintained in Dulbecco's Modified Eagle's Medium (DMEM) with 4.5 g/L glucose, 10% FBS, and antibiotics, at 37° C., in a humidified atmosphere containing 95% air and 5% CO2. Cells were seeded at 1.0·10^4 cells per 96-well culture plates. […] Twenty-four hours after transfection, the growth medium was replaced with DMEM containing 2% FBS, and the cells were cultured for an additional six days.
To examine the differentiation of C2C12 cells to osteoblasts, ALP staining was performed as described in Katagiri, T. et al., (1994) J. Cell.

K44_11_D01: ZFP QSHV-QSNI-QTHR1-CSNR1 with kid repression domain (SEQ ID NO:14)
increase of SEAP activity compared to parental plasmid (vector) (CMV-SEAP reporter): approximately 3 fold | CMV-SEAP, average (CMV-SEAP reporter): 3.49 | activation of CMV-Luciferase (in words) (CMV-Luc reporter): not the CMV-Luciferase | CMV-Luc, average (CMV-Luc reporter): 0.87 | activation of SV40-SEAP (in words) (SV40-SEAP reporter): showed activation of SV40-SEAP | SV40-SEAP, average (SV40-SEAP reporter): 3.66

Neuro1-p65: chimeric ZFP QSNR1-QSNK-CSNR1 with p65 activation domain (SEQ ID NO:2)
Percentage of neurite bearing cells ([1]; No RA): 42.39 ± 5.56% | Percentage of neurite bearing cells ([1]; RA 10 uM): 41.59 ± 6.46% | neuritogenesis ([1]; cells treated with 10 μM RA): marked acceleration of neuritogenesis | neuritogenesis / differentiation (length and thickness of neurites) ([1]; without RA): most prominent effect on differentiation

K44_11_G12: ZFP QSHV-VSTR-RDNQ-QTHR1 with kid repression domain (SEQ ID NO:16)
increase of SEAP activity compared to parental plasmid (vector) (CMV-SEAP reporter): approximately 3 fold | CMV-SEAP, average (CMV-SEAP reporter): 2.82 | activation of CMV-luciferase (CMV-Luc reporter): 2-3 fold | CMV-Luc, average (CMV-Luc reporter): 2.75 | activation of SV40-SEAP (SV40-SEAP reporter): 2-3 fold | SV40-SEAP, average (SV40-SEAP reporter): 2.14

F121_p65: ZFP QSHT-RSHR-RDHT-p65 (SEQ ID NO:20)
Norm ratio of medians (ROM) ([2]; FK506-binding protein 8 (38 kD), ID N95418): 8.66 | Norm ratio of medians (ROM) ([2]; Fn14 for type I transmenmbrane protein, ID AI221536): 5.06 | Norm ratio of medians (ROM) ([2]; brain-specific protein p25 alpha, ID AA133959): 5.71 | Norm ratio of medians (ROM) ([2]; cadherin 13, H-cadherin (heart), ID R41787): 7.34 and 5.90 | Norm ratio of medians (ROM) ([2]; cellular retinoic acid-binding protein 2, ID AA598508): 10.30 | Norm ratio of medians (ROM) ([2]; cyclin D1 (PRAD1: parathyroid adenomatosis, ID AA487486)): 5.27 | Norm ratio of medians (ROM) ([2]; cysteine-rich protein 2, ID AA485427): 6.71 | Norm ratio of medians (ROM) ([2]; growth arrest and DNA-damage-inducible, ID AA404666): 5.55 | Norm ratio of medians (ROM) ([2]; insulin-like growth factor 2, ID H59614): 17.71 and 16.88 | Norm ratio of medians (ROM) ([2]; insulin-like growth factor 2, ID N54596): 14.40 | Norm ratio of medians (ROM) ([2]; jun B proto-oncogene, ID N94468): 11.61 | Norm ratio of medians (ROM) ([2]; ketohexokinase (fructokinase), ID T61256): 5.28 | Norm ratio of medians (ROM) ([2]; lymphocyte antigen 6 complex, locus H, ID AI929550): 5.50 | Norm ratio of medians (ROM) ([2]; nuclear factor of activated T-cells, ID AA679278): 9.64 | Norm ratio of medians (ROM) ([2]; protein phosphatase 2, regulatory subunit, ID R59165): 9.89 and 8.60 | Norm ratio of medians (ROM) ([2]; protein tyrosine phosphatase, receptor, ID R45941): 16.45 | Norm ratio of medians (ROM) ([2]; putative gene product, ID H09111): 12.35 | Norm ratio of medians (ROM) ([2]; tumor necrosis factor (ligand) superfamily, ID AI347622): 6.15 | Norm ratio of medians (ROM) ([2]; unnamed (—), ID AA045731): 5.27 | Norm ratio of medians (ROM) ([2]; zinc finger protein homologous to Zfp-36, ID R38383): 6.46

K_F02: ZFP DSAR2-RDKR-RDER1-QTHR1 with kid repression domain (SEQ ID NO:12)
activation of cell growth compared to the control (293 cells): 2.7 fold | relative cell number, average (293 cells): 279.3%

P_B08: ZFP QSNR1-DSNR-DSNR with p65 activation domain (SEQ ID NO:8)
Absorbance (405 nm) ([3]; SEAP reporter activity, three days after transfection): 2.40 | SV40-SEAP reporter, average ([3]; Vector (HANLS) = 1): 16.51 | increase of SEAP activity compared to parental plasmid ([3]; retest): approximately 16 fold

CC1=C(/C=C/C(C)=C/C=C/C(C)=C/C(=O)O)C(C)(C)CCC1 [RA, retinoic acid, reference compound]
Percentage of neurite bearing cells ([1]; RA 10 uM): 14.93 ± 7.69%

K_D10: ZFP QSHV-WSNR-WSNR-RDNQ with kid repression domain (SEQ ID NO:10)
inhibition of cell growth compared to parental vector (293 cells): approximately 3 fold | relative cell number, average (293 cells): 27.4%

CC(=O)N1CCN(c2ccc(OCC3COC(Cn4ccnc4)(c4ccc(Cl)cc4Cl)O3)cc2)CC1 (stereo not shown) [ketoconazole, Ketoconazole]
ketoconazole concentration that inhibited growth of YPH499a cells (yeast strain YPH499a): 35 µM

Osteo1-p65: four-finger ZFP RDKR-QTHR1-VSTR-RDKR with p65 activation domain (SEQ ID NO:4)
cells with strong ALP staining (C2C12 myoblasts): about 30%
